According to US20230075856A1, “CYCLIC SULFAMIDE COMPOUNDS FOR TREATMENT OF HBV” (Assembly Biosciences, Inc., priority 2018, published 2023):
Like-named read-outs stand apart in the source and are kept apart here.

System: HBV viral load production from HepAD38 cells
Experiment: Viral production from HepAD38 cells: viral load in supernatant by qPCR of the HBV core sequence
Assay type: cell-based
Conditions: 5 days incubation, qPCR of supernatant HBV DNA vs DMSO control, read-out: viral load lowering EC50 (Activity)
Method in brief: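 Viral load was measured by qPCR of the HBV core region in supernatant, quantified against DNA standards and compared with DMSO wells. Cells (50,000/well, tetracycline withdrawn, 2% FBS) received compound from 10 μM final for 5 days; EC50 from four-parameter nonlinear regression.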

[1] = Hepatitis B virus, HePAD38, 120 h

Row | Structure (SMILES) | EC50 | EC50 [1]
1 | COC(=O)N1CCC(NC(=O)C2CC(C(=O)Nc3ccc(F)c(Cl)c3)N(CC(F)(F)F)S(=O)(=O)N2)CC1 (single isomer, unassigned; isomer-b) [Compound 893-ISOMER-B, methyl 4-[[5-[(3-chloro-4-fluroo-phenyl)carbamoyl]-1,1-dioxo-6-(2,2,2-trifluoroethyl)-1,2,6-thiadiazinane-3-carbonyl]amino]piperidine-1-carboxylate] | 100 to 10000 nM | 
2 | CN1C(C(=O)Nc2ccc(F)c(Cl)c2)CC(C(=O)NCc2cnc(-c3cccnc3)s2)NS1(=O)=O (single isomer, unassigned; isomer-b) [Compound 911-ISOMER-B, N3-(3-chloro-4-fluoro-phenyl)-2-methyl-1,1-dioxo-N5-[[2-(3-pyridyl)thiazol-5-yl]methyl]-1,2,6-thiadiazinane-3,5-dicarboxmaide] | < 50 nM | 
3 | CN1C(C(=O)Nc2ccc(F)c(Cl)c2)CC(C(=O)NCc2cnc(-c3cccc(Cl)c3)s2)NS1(=O)=O (single isomer, unassigned; isomer-b) [Compound 913-ISOMER-B, N3-(3-chloro-4-fluoro-phenyl)-N5-[[2-(3-chlorophenyl)thiazol-5-yl]methyl]-2-methyl-1,1-dioxo-1,2,-thiadiazinane-3,5-dicarboxamide] | < 50 nM | 
4 | CN1C(C(=O)Nc2ccc(F)c(Cl)c2)CC(C(=O)NC2CCN(c3cc(CN4CCCCC4)ccn3)CC2)NS1(=O)=O (single isomer, unassigned; isomer-b) [Compound 975-ISOMER-B, N3-(3-chloro-4-fluroo-phenyl)-2-methyl-1,1-dioxo-N5-[1-[4-(1-piperidylmethyl)-2-pyridyl]-4-piperidyl]-1,2,6-thiadiazinane-3,5-dicarboxamide] | 100 to 10000 nM | 
5 | Cc1nc(-c2ccccc2F)sc1[C@@H](NC(=O)C1CC(C(=O)Nc2ccc(F)c(Cl)c2)N(C)S(=O)(=O)N1)c1ccccc1 (single isomer, unassigned; isomer-d) [1101-ISOMER-D] | 100 to 10000 nM | 
6 | CN1C(C(=O)Nc2ccc(F)c(Cl)c2)CC(C(=O)NC2CCCc3nc(-c4ccc(OCCN5CCCCC5)cc4)sc32)NS1(=O)=O (single isomer, unassigned; isomer-d) [Compound 948-ISOMER-D] | < 50 nM | 
7 | CN1C(C(=O)Nc2ccc(F)c(Cl)c2)CC(C(=O)NC2CC2c2ccccc2)NS1(=O)=O (stereo not drawn) [Compound 476] |  | 50 to 100 nM
8 | COC(=O)N1CCC(NC(=O)C2CC(C(=O)Nc3ccc(F)c(Cl)c3)N(C)S(=O)(=O)N2)CC1 (stereo not drawn) [Compound 477] |  | < 50 nM
9 | CN1C(C(=O)Nc2ccc(F)c(Cl)c2)CC(C(=O)Nc2cnn(C)c2)NS1(=O)=O (stereo not drawn) [Compound 478] |  | 100 to 10000 nM
10 | CN1C(C(=O)Nc2ccc(F)c(Cl)c2)CC(C(=O)NCc2ccc(C(F)(F)F)cc2)NS1(=O)=O (stereo not drawn) [Compound 481] |  | 50 to 100 nM
11 | Cc1cc(CNC(=O)C2CC(C(=O)Nc3ccc(F)c(Cl)c3)N(C)S(=O)(=O)N2)n(C)n1 (stereo not drawn) [Compound 482] |  | < 50 nM
12 | CN1C(C(=O)Nc2ccc(F)c(Cl)c2)CC(C(=O)Nc2cccc3cnccc23)NS1(=O)=O (stereo not drawn) [Compound 485] |  | < 50 nM
13 | Cc1cc(CNC(=O)C2CC(C(=O)Nc3ccc(F)c(Cl)c3)N(C)S(=O)(=O)N2)on1 (stereo not drawn) [Compound 489] |  | 50 to 100 nM
14 | C[C@H](NC(=O)C1CC(C(=O)Nc2ccc(F)c(Cl)c2)N(C)S(=O)(=O)N1)c1ccc(F)cc1 (stereo partly drawn) [Compound 493-S] |  | < 50 nM
15 | CC(NC(=O)C1CC(C(=O)Nc2ccc(F)c(Cl)c2)N(C)S(=O)(=O)N1)c1ccc(F)cc1 (stereo not drawn) [Compound 493] |  | < 50 nM
16 | CN1C(C(=O)Nc2ccc(F)c(Cl)c2)CC(C(=O)Nc2cn(C)cn2)NS1(=O)=O (stereo not drawn) [Compound 494] |  | 50 to 100 nM
17 | Cc1ncc(CNC(=O)C2CC(C(=O)Nc3ccc(F)c(Cl)c3)N(C)S(=O)(=O)N2)s1 (stereo not drawn) [Compound 495] |  | < 50 nM
18 | CN1C(C(=O)Nc2ccc(F)c(Cl)c2)CC(C(=O)NCc2cnc(C(F)(F)F)s2)NS1(=O)=O (stereo not drawn) [Compound 498] |  | 100 to 10000 nM
19 | CN1C(C(=O)Nc2ccc(F)c(Cl)c2)CC(C(=O)NCc2ccc(S(N)(=O)=O)s2)NS1(=O)=O (stereo not drawn) [Compound 682] |  | 100 to 10000 nM
20 | CN1C(C(=O)Nc2ccc(F)c(Cl)c2)CC(C(=O)NCc2nccs2)NS1(=O)=O (stereo not drawn) [Compound 684] |  | 100 to 10000 nM

Row | Structure (SMILES) | EC50 | EC50 [1]
21 | Cc1noc(CNC(=O)C2CC(C(=O)Nc3ccc(F)c(Cl)c3)N(C)S(=O)(=O)N2)n1 (stereo not drawn) [Compound 685] |  | 100 to 10000 nM
22 | Cc1csc(CNC(=O)C2CC(C(=O)Nc3ccc(F)c(Cl)c3)N(C)S(=O)(=O)N2)n1 (stereo not drawn) [Compound 686] |  | 50 to 100 nM
23 | Cc1cnc(CNC(=O)C2CC(C(=O)Nc3ccc(F)c(Cl)c3)N(C)S(=O)(=O)N2)s1 (stereo not drawn) [Compound 687] |  | < 50 nM
24 | CN1C(C(=O)Nc2ccc(F)c(Cl)c2)CC(C(=O)NCc2nc3ccccc3s2)NS1(=O)=O (stereo not drawn) [Compound 689] |  | < 50 nM
25 | CN1C(C(=O)Nc2ccc(F)c(Cl)c2)CC(C(=O)NCc2cnc(-c3ccccc3)s2)NS1(=O)=O (stereo not drawn) [Compound 691] |  | < 50 nM
26 | CN1C(C(=O)Nc2ccc(F)c(Cl)c2)CC(C(=O)NCc2cnccn2)NS1(=O)=O (stereo not drawn) [Compound 704] |  | 100 to 10000 nM
27 | CN1C(C(=O)Nc2ccc(F)c(Cl)c2)CC(C(=O)NC2CCOC2)NS1(=O)=O (stereo not drawn) [Compound 706] |  | 100 to 10000 nM
28 | CN1C(C(=O)Nc2ccc(F)c(Cl)c2)CC(C(=O)Nc2cccnc2)NS1(=O)=O (stereo not drawn) [Compound 708] |  | 100 to 10000 nM
29 | CN1C(C(=O)Nc2ccc(F)c(Cl)c2)CC(C(=O)NC2CCN(S(C)(=O)=O)CC2)NS1(=O)=O (stereo not drawn) [Compound 710] |  | 100 to 10000 nM
30 | CN1C(C(=O)Nc2ccc(F)c(Cl)c2)CC(C(=O)Nc2ccc(-c3ccccc3)cc2)NS1(=O)=O (stereo not drawn) [Compound 711] |  | 100 to 10000 nM
31 | CN1C(C(=O)Nc2ccc(F)c(Cl)c2)CC(C(=O)NCc2ccncc2)NS1(=O)=O (stereo not drawn) [Compound 715] |  | 100 to 10000 nM
32 | Cc1cccc(CNC(=O)C2CC(C(=O)Nc3ccc(F)c(Cl)c3)N(C)S(=O)(=O)N2)n1 (stereo not drawn) [Compound 716] |  | < 50 nM
33 | COc1ccc(CNC(=O)C2CC(C(=O)Nc3ccc(F)c(Cl)c3)N(C)S(=O)(=O)N2)cc1 (stereo not drawn) [Compound 717, N3-(3-chloro-4-fluoro-phenyl)-N5-[(4-methoxyphenyl)methyl]-2-methyl-1,1-dioxo-1,2,6-thiadiazinane-3,5-dicarboxamide] |  | < 50 nM
34 | CN1C(C(=O)Nc2ccc(F)c(Cl)c2)CC(C(=O)NCc2ccccc2)NS1(=O)=O (stereo not drawn) [Compound 718] |  | < 50 nM
35 | C[C@@H](NC(=O)C1CC(C(=O)Nc2ccc(F)c(Cl)c2)N(C)S(=O)(=O)N1)c1ccccc1 (stereo partly drawn) [Compound 719] |  | < 50 nM
36 | COc1cccc(CNC(=O)C2CC(C(=O)Nc3ccc(F)c(Cl)c3)N(C)S(=O)(=O)N2)c1 (stereo not drawn) [Compound 721] |  | < 50 nM
37 | CN1C(C(=O)Nc2ccc(F)c(Cl)c2)CC(C(=O)NCc2cccc(C(F)(F)F)c2)NS1(=O)=O (stereo not drawn) [Compound 724] |  | 50 to 100 nM
38 | CN1C(C(=O)Nc2ccc(F)c(Cl)c2)CC(C(=O)Nc2ccc3cccnc3c2)NS1(=O)=O (stereo not drawn) [Compound 725] |  | 50 to 100 nM
39 | CN1C(C(=O)Nc2ccc(F)c(Cl)c2)CC(C(=O)NCCCc2ccccc2)NS1(=O)=O (stereo not drawn) [Compound 726] |  | 50 to 100 nM
40 | CN1C(C(=O)Nc2ccc(F)c(Cl)c2)CC(C(=O)NC2CCCCC2)NS1(=O)=O (stereo not drawn) [Compound 728] |  | 100 to 10000 nM

Row | Structure (SMILES) | EC50 | EC50 [1]
41 | CN1C(C(=O)Nc2ccc(F)c(Cl)c2)CC(C(=O)NCc2ccc(Cl)cc2)NS1(=O)=O (stereo not drawn) [Compound 729] |  | < 50 nM
42 | CN1C(C(=O)Nc2ccc(F)c(Cl)c2)CC(C(=O)NCc2cccc(Cl)c2)NS1(=O)=O (stereo not drawn) [Compound 730] |  | < 50 nM
43 | CN1C(C(=O)Nc2ccc(F)c(Cl)c2)CC(C(=O)N[C@H]2CCCc3ccccc32)NS1(=O)=O (stereo partly drawn) [Compound 731] |  | 100 to 10000 nM
44 | CN1C(C(=O)Nc2ccc(F)c(Cl)c2)CC(C(=O)NCCc2ccccc2)NS1(=O)=O (stereo not drawn) [Compound 732] |  | 100 to 10000 nM
45 | CN1C(C(=O)Nc2ccc(F)c(Cl)c2)CC(C(=O)Nc2ccc3c(c2)OCCO3)NS1(=O)=O (stereo not drawn) [Compound 734] |  | 50 to 100 nM
46 | CC(NC(=O)C1CC(C(=O)Nc2ccc(F)c(Cl)c2)N(C)S(=O)(=O)N1)c1ccccn1 (stereo not drawn) [Compound 736] |  | 50 to 100 nM
47 | CN1C(C(=O)Nc2ccc(F)c(Cl)c2)CC(C(=O)NC2CCOCC2)NS1(=O)=O (stereo not drawn) [Compound 738] |  | 50 to 100 nM
48 | CN1C(C(=O)Nc2ccc(F)c(Cl)c2)CC(C(=O)NCc2ccccn2)NS1(=O)=O (stereo not drawn) [Compound 739] |  | 50 to 100 nM
49 | Cc1c(CNC(=O)C2CC(C(=O)Nc3ccc(F)c(Cl)c3)N(C)S(=O)(=O)N2)cnn1C (stereo not drawn) [Compound 740] |  | < 50 nM
50 | C[C@@H](NC(=O)C1CC(C(=O)Nc2ccc(F)c(Cl)c2)N(C)S(=O)(=O)N1)C1CCCCC1 (stereo partly drawn) [Compound 741] |  | 50 to 100 nM
51 | CCc1nc(CNC(=O)C2CC(C(=O)Nc3ccc(F)c(Cl)c3)N(C)S(=O)(=O)N2)cs1 (stereo not drawn) [Compound 742] |  | 50 to 100 nM
52 | CCn1nccc1CNC(=O)C1CC(C(=O)Nc2ccc(F)c(Cl)c2)N(C)S(=O)(=O)N1 (stereo not drawn) [Compound 744] |  | 50 to 100 nM
53 | CCn1ccc(CNC(=O)C2CC(C(=O)Nc3ccc(F)c(Cl)c3)N(C)S(=O)(=O)N2)n1 (stereo not drawn) [Compound 745] |  | 50 to 100 nM
54 | C[C@H](NC(=O)C1CC(C(=O)Nc2ccc(F)c(Cl)c2)N(C)S(=O)(=O)N1)c1ccccc1 (stereo partly drawn) [Compound 755] |  | 100 to 10000 nM
55 | CC(C)OC(=O)N1CCC(NC(=O)C2CC(C(=O)Nc3ccc(F)c(Cl)c3)N(C)S(=O)(=O)N2)CC1 (stereo not drawn) [Compound 766] |  | < 50 nM
56 | CN1C(C(=O)Nc2ccc(F)c(Cl)c2)CC(C(=O)NC2CCN(C(=O)OC(C)(C)C)CC2)NS1(=O)=O (stereo not drawn) [Compound 767] |  | < 50 nM
57 | CN1C(C(=O)Nc2ccc(F)c(Cl)c2)CC(C(=O)NC2CCN(c3ccccn3)CC2)NS1(=O)=O (stereo not drawn) [Compound 769] |  | < 50 nM
58 | COC(=O)N1CCC(NC(=O)C2CC(C(=O)Nc3ccc(F)c(C#N)c3)N(C)S(=O)(=O)N2)CC1 (stereo not drawn) [Compound 770] |  | 50 to 100 nM
59 | CN1C(C(=O)Nc2ccc(F)c(C#N)c2)CC(C(=O)NCc2cnc(C(F)(F)F)s2)NS1(=O)=O (stereo not drawn) [Compound 772] |  | < 50 nM
60 | Cc1cc(CNC(=O)C2CC(C(=O)Nc3ccc(F)c(C#N)c3)N(C)S(=O)(=O)N2)n(C)n1 (stereo not drawn) [Compound 773] |  | 100 to 10000 nM
